# Where “and” joins values, the source holds several entries; their conditions need not be identical. Equal values may be shown once. Read-outs that look alike come from different tables or passages of the source.
# How the values were obtained:
# SFRP-1 [1] = biological target: T1, SFRP-1 (Homo sapiens, UniProt Q8N474); assay: Cell-based assay for in vitro measurement of SFRP-1/SARP2 antagonist activity (U2OS cells co-transfected with 16x TCF-tk-Luciferase reporter, Wnt and hSFRP-1); details: for Fold Induction with SFRP-1 / Fold Induction without SFRP-1: Conc 15 μM; for fold induction at 10 µM / fold induction at 15 µM / fold induction at 14 µM: U2OS; for fold induction at 10 µM: read-out: Fold Induction with SFRP-1, U2OS cells, single dose 10 μM, luciferase reporter, fold induction over SFRP-1 control;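 on all read-outs here: U2OS cells co-transfected with a TCF-tk luciferase reporter, a Wnt vector, hSFRP-1 or empty vector and CMV-βgal, luciferase luminescence read in cell lysates alongside βgal activity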
# T1 sequence (Q8N474 32-314): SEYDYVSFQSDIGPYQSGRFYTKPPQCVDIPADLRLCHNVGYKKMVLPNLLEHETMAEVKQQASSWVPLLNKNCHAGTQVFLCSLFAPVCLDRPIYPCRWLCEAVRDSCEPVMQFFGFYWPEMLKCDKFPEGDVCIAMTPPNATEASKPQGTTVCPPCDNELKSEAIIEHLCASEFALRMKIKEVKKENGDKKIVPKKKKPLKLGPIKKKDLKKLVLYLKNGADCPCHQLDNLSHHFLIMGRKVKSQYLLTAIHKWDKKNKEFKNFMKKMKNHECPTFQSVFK
# SFRP-1 [2] = biological target: T1, SFRP-1; assay: Fluorescence polarization binding assay (competitive displacement of a probe compound from SFRP-1); details: fluorescence anisotropy, 45 nM SFRP-1, 20 nM probe;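 further: test compound competes with a fluorescent probe held by SFRP-1, seen as a drop in probe anisotropy after incubation in darkness, with anisotropy as function of rising compound dose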
# [3] = read-out: Fold Induction with SFRP-1, Conc 15 μM, with SFRP-1, fold induction over SFRP-1 control, single dose
# [4] = read-out: Fold Induction without SFRP-1, Conc 15 μM, without SFRP-1, single dose
# [5] = with SFRP-1, fold induction over SFRP-1 control, single dose
Structure (SMILES),IC50 (SFRP-1 [2]),fold induction at 15 µM (SFRP-1 [1]; [3]),fold induction at 15 µM (SFRP-1 [1]; [4]),also measured
"CC(C)c1ccc(S(=O)(=O)c2ccc(N3C[C@@H](C)NC[C@@H]3C)cc2)cc1S(=O)(=O)NC1CCOCC1 (relative stereo) [Example 627, 5-({4-trans-2,5-dimethylpiperazin-1-ylphenyl}sulfonyl)-2-isopropyl-N-(tetrahydro-2H-pyran-4-yl)benzenesulfonamide]",5 µM,–,–,"Fold Induction with SFRP-1 (SFRP-1 [1]; single dose, luciferase reporter, fold induction over SFRP-1 control, cells with SFRP-1): 3.4 fold; Fold Induction without SFRP-1 (SFRP-1 [1]; single dose, luciferase reporter, cells without SFRP-1 (specificity control)): 1.1 fold"
"C[C@@H](NS(=O)(=O)c1cc(S(=O)(=O)c2ccccc2)ccc1Cl)[C@H](O)c1ccccc1 (relative stereo) [Example 676, 2-chloro-N-[(1R*,2R*)-2-hydroxy-1-methyl-2-phenylethyl]-5-(phenylsulfonyl)benzenesulfonamide]",9 µM,–,–,EC50 (SFRP-1 [1]): 8.9 µM; fold induction at 10 µM (SFRP-1 [1]): 2.6
"C[C@@H](NS(=O)(=O)c1cc(S(=O)(=O)c2ccccc2)ccc1C(F)(F)F)[C@H](O)c1ccccc1 (relative stereo) [Example 684, N-[(1R*,2R*)-2-hydroxy-1-methyl-2-phenylethyl]-5-(phenylsulfonyl)-2-(trifluoromethyl)benzenesulfonamide]",1 µM,–,–,EC50 (SFRP-1 [1]): 29.3 µM; fold induction at 10 µM (SFRP-1 [1]): 1.7
"Cc1ccc(S(=O)(=O)c2ccc(F)cc2)cc1S(=O)(=O)NCCN1CCOCC1 [Example 169, 5-[(4-fluorophenyl)sulfonyl]-2-methyl-N-(2-morpholin-4-ylethyl)benzenesulfonamide]",13 µM,2.6,0.9,–
"Cc1ccc(S(=O)(=O)c2ccc(F)cc2)cc1S(=O)(=O)NCCCn1ccnc1 [Example 177, 5-[(4-fluorophenyl)sulfonyl]-N-[3-(1H-imidazol-1-yl)propyl]-2-methylbenzenesulfonamide]",2.9 µM,3.6,1,"fold induction at 14 µM (SFRP-1 [1]; read-out: Fold Induction with SFRP-1, Conc 14 μM, with SFRP-1, fold induction over SFRP-1 control, single dose): 2.9; fold induction at 14 µM (SFRP-1 [1]; read-out: Fold Induction without SFRP-1, Conc 14 μM, without SFRP-1, single dose): 1"
"COC(=O)CCNS(=O)(=O)c1cc(S(=O)(=O)c2ccccc2)ccc1C [Example 204, methyl N-{[2-methyl-5-(phenylsulfonyl)phenyl]sulfonyl}-beta-alaninate]",8 µM,3.4,1.1,–
"Cc1ccc(S(=O)(=O)c2ccccc2)cc1S(=O)(=O)NCCc1ccccn1 [Example 205, 2-methyl-5-(phenylsulfonyl)-N-(2-pyridin-2-ylethyl)benzenesulfonamide]",3 µM,2.3,0.8,–
"Cc1ccc(S(=O)(=O)c2ccccc2)cc1S(=O)(=O)NCCCn1ccnc1 [Example 219, N-[3-(1H-imidazol-1-yl)propyl]-2-methyl-5-(phenylsulfonyl)benzenesulfonamide]",3 µM and 1.1 µM and 2.1 µM,3,1.1,Fold Induction with SFRP-1 (SFRP-1 [1]; [5]): 3.6 fold
"CCc1ccc(S(=O)(=O)c2ccccc2)cc1S(=O)(=O)NCCc1ccccn1 [Example 223, 2-ethyl-5-(phenylsulfonyl)-N-(2-pyridin-2-ylethyl)benzenesulfonamide]",0.9 µM,2.6,0.8,–
"CCc1ccc(S(=O)(=O)c2ccccc2)cc1S(=O)(=O)NCCN1CCOCC1 [Example 226, 2-ethyl-N-(2-morpholin-4-ylethyl)-5-(phenylsulfonyl)benzenesulfonamide]",2.6 µM,3,0.7,–
"CCc1ccc(S(=O)(=O)c2ccccc2)cc1S(=O)(=O)NCCCOC [Example 227, 2-ethyl-N-(3-methoxypropyl)-5-(phenylsulfonyl)benzenesulfonamide]",4 µM,2.7,0.8,–
"CCc1ccc(S(=O)(=O)c2ccccc2)cc1S(=O)(=O)NCCCN(C)C [Example 228, N-[3-(dimethylamino)propyl]-2-ethyl-5-(phenylsulfonyl)benzenesulfonamide]",8 µM and 15 µM,3.3,1.2,–
"CCc1ccc(S(=O)(=O)c2ccccc2)cc1S(=O)(=O)NCCCN(CC)CC [Example 230, N-[3-(diethylamino)propyl]-2-ethyl-5-(phenylsulfonyl)benzene sulfonamide]",16 µM,3.2,1.2,–
"CCc1ccc(S(=O)(=O)c2ccccc2)cc1S(=O)(=O)NCCCn1ccnc1 [Example 231, 2-ethyl-N-[3-(1H-imidazol-1-yl)propyl]-5-(phenylsulfonyl)benzenesulfonamide]",0.3 µM and 0.6 µM,3.4,1,"Fold Induction with SFRP-1 (SFRP-1 [1]; [5]): 2.8 fold; Fold Induction without SFRP-1 (SFRP-1 [1]; without SFRP-1, single dose): 0.8 fold"
"CC(C)c1ccc(S(=O)(=O)c2ccccc2)cc1S(=O)(=O)NCCc1ccccc1 [Example 295, 2-isopropyl-N-(2-phenylethyl)-5-(phenylsulfonyl)benzenesulfonamide]",0.3 µM,2.7,1.5,–
"CC(C)c1ccc(S(=O)(=O)c2ccccc2)cc1S(=O)(=O)NCCCn1ccnc1 [Example 296, N-[3-(1H-imidazol-1-yl)propyl]-2-isopropyl-5-(phenylsulfonyl)benzenesulfonamide]",0.2 µM,3.3,1.4,–
"CCc1ccc(S(=O)(=O)c2ccc(F)cc2)cc1S(=O)(=O)NCCn1ccnc1 [Example 297, 2-ethyl-5-[(4-fluorophenyl)sulfonyl]-N-[2-(1H-imidazol-1-yl)ethyl]benzenesulfonamide]",0.4 µM,4.3,1.4,–
"Cc1ccc(S(=O)(=O)c2ccccc2)cc1S(=O)(=O)NC1CCOCC1 [Example 298, 2-methyl-5-(phenylsulfonyl)-N-tetrahydro-2H-pyran-4-ylbenzenesulfonamide]",0.8 µM,3.2,1.3,–
"O=S(=O)(NCc1ccc(Br)cc1)c1cc(S(=O)(=O)c2ccccc2)ccc1C(F)(F)F [Example 964, N-(4-bromobenzyl)-5-(phenylsulfonyl)-2-(trifluoromethyl)benzenesulfonamide]",–,–,–,fold induction at 10 µM (SFRP-1 [1]): 1.2

# More lines, main results first:
IC50 (SFRP-1 [2]),fold induction at 15 µM (SFRP-1 [1]; [3]),fold induction at 15 µM (SFRP-1 [1]; [4]),Structure (SMILES),also measured
13 µM,–,–,"CC(C)C(CO)NS(=O)(=O)c1cc(S(=O)(=O)c2ccccc2)ccc1C(F)(F)F (stereo not drawn) [Example 769, N-[1-(hydroxymethyl)-2-methylpropyl]-5-(phenylsulfonyl)-2-(trifluoromethyl)benzenesulfonamide]",–
4 µM,–,–,"CN(CCCNS(=O)(=O)c1cc(S(=O)(=O)c2ccccc2)ccc1C(F)(F)F)C(=O)N1CCN(C(=O)OC(C)(C)C)CC1 [Example 974, tert-butyl 4-({methyl[3-({[5-(phenylsulfonyl)-2-(trifluoromethyl)phenyl]sulfonyl}amino)propyl]amino}carbonyl)piperazine-1-carboxylate]",–
6 µM,–,–,"O=C(O)c1cccc(-c2ccc(CNS(=O)(=O)c3cc(S(=O)(=O)c4ccccc4)ccc3C(F)(F)F)cc2)c1 [Example 976, 4′-[({[5-(phenylsulfonyl)-2-(trifluoromethyl)phenyl]sulfonyl}amino)methyl]biphenyl-3-carboxylic acid]",–
13 µM,–,–,"CN(CCNS(=O)(=O)c1cc(S(=O)(=O)c2ccccc2)ccc1C(F)(F)F)CC(=O)O [Example 981, N-methyl-N-[2-({[5-(phenylsulfonyl)-2-(trifluoromethyl)phenyl]sulfonyl}amino)ethyl]glycine]",–
8 µM,–,–,"CN(CCNS(=O)(=O)c1cc(S(=O)(=O)c2ccccc2)ccc1C(F)(F)F)CCC(=O)O [Example 982, N-methyl-N-[2-({[5-(phenylsulfonyl)-2-(trifluoromethyl)phenyl]sulfonyl}amino)ethyl]-β-alanine]",–
0.8 µM,–,–,"N#Cc1cccc(N2CCC(NS(=O)(=O)c3cc(S(=O)(=O)c4ccccc4)ccc3C(F)(F)F)CC2)c1 [Example 986, N-[1-(3-cyanophenyl)piperidin-4-yl]-5-(phenylsulfonyl)-2-(trifluoromethyl)benzenesulfonamide]",–
3 µM,–,–,"CN(CCNS(=O)(=O)c1cc(S(=O)(=O)c2ccccc2)ccc1C(F)(F)F)C(=O)N(C)C1CCN(C(=O)OC(C)(C)C)CC1 [Example 989, tert-butyl 4-[methyl({methyl[2-({[5-(phenylsulfonyl)-2-(trifluoromethyl)phenyl]sulfonyl}amino)ethyl]amino}carbonyl)amino]piperidine-1-carboxylate]",–
2.3 µM,–,–,"O=S(=O)(NCc1cccc(Br)c1)c1cc(S(=O)(=O)c2ccccc2)ccc1C(F)(F)F [Example 994, N-(3-bromobenzyl)-5-(phenylsulfonyl)-2-(trifluoromethyl)benzenesulfonamide]",–
4 µM,–,–,"CN(C(=O)NCCNS(=O)(=O)c1cc(S(=O)(=O)c2ccccc2)ccc1C(F)(F)F)C1CCN(C(=O)OC(C)(C)C)CC1 [Example 1045, tert-butyl 4-[methyl({[2-({[5-(phenylsulfonyl)-2-(trifluoromethyl)phenyl]sulfonyl}amino)ethyl]amino}carbonyl)amino]piperidine-1-carboxylate]",–
